As usually defined, the EC50 is the concentration giving half of the maximal effect.

A value given as a limit tells only on which side of the number the result lay.

In assay [1] the target is Toll-like receptor 1/2 (Mus musculus). The assay is described as follows: Agonist activity at TLR2/TLR1 in mouse Macrophage cell line.
The next assay addresses Toll-like receptor 1/2 (Homo sapiens, UniProt O60603+Q15399). The assay is described as follows: Agonist activity at TLR2/TLR1 in human THP-1 cells. In kind it is cell-based.

Sequence of Toll-like receptor 1/2 (O60603 whole entry): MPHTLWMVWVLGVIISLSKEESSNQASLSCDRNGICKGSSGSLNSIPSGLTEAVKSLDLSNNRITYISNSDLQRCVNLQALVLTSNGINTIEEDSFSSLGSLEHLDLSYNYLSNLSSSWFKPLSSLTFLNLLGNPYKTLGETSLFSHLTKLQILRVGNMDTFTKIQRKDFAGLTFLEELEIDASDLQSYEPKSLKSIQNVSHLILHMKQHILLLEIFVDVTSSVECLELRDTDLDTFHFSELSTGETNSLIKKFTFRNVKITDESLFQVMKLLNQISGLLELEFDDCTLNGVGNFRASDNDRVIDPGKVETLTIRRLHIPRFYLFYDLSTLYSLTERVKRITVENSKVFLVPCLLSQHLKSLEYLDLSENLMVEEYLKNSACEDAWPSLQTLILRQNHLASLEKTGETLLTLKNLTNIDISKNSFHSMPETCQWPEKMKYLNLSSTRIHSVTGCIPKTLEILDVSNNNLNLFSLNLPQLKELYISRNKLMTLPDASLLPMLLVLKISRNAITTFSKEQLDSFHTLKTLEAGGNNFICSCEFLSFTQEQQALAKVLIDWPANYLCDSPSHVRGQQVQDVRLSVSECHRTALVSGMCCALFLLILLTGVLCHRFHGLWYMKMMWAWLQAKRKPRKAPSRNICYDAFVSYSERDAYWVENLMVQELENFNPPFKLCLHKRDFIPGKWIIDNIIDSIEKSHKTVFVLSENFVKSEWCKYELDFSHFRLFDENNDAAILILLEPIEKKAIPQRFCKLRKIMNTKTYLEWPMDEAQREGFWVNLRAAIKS
Sequence of Toll-like receptor 1/2 (Q15399 whole entry): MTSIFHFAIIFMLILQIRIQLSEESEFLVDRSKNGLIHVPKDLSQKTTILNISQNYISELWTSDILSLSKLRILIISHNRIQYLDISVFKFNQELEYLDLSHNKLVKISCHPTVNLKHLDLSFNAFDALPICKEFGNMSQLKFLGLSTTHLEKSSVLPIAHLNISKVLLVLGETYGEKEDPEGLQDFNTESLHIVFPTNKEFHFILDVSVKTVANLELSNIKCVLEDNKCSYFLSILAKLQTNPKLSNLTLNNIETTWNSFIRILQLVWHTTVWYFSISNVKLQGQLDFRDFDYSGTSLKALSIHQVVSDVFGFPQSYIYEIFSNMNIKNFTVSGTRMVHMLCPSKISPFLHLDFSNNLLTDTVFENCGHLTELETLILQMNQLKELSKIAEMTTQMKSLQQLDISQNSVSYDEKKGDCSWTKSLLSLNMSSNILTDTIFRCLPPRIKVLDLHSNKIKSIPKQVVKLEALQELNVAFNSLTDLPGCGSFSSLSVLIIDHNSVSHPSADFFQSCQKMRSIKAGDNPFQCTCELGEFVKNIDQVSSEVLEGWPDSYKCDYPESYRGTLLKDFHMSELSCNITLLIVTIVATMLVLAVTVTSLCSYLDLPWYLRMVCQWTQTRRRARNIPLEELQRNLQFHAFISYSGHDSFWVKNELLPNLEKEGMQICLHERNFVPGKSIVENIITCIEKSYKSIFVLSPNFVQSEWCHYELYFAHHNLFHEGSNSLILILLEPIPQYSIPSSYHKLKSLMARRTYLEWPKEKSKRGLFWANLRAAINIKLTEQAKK

Take `COc1ccc([C@H]2C[C@@H]2NC(=O)[C@@H]2CN(C(=O)c3ccc(C(=O)N4C[C@@H](C(=O)N[C@H]5C[C@@H]5c5ccc(OC)cc5)[C@H](C(=O)N[C@@H]5C[C@H]5c5ccc(OC)cc5)C4)cc3)C[C@H]2C(=O)N[C@H]2C[C@@H]2c2ccc(OC)cc2)cc1`: the 50% effective concentration (EC50) (in assay [1]; on Toll-like receptor 1/2) was > 5 µM each time.

Turning to `O=C(N[C@H]1C[C@@H]1c1ccccc1)[C@@H]1CN(C(=O)c2cc(O)c(C(=O)N3C[C@@H](C(=O)N[C@H]4C[C@@H]4c4ccccc4)[C@H](C(=O)N[C@H]4C[C@@H]4c4ccccc4)C3)cc2O)C[C@H]1C(=O)N[C@H]1C[C@@H]1c1ccccc1`, the EC50 was > 5 µM in assay [1] and 0.02 µM at Toll-like receptor 1/2.

Take `CCCNC(=O)[C@@H]1CN(C(=O)c2ccc(C(=O)N3C[C@@H](C(=O)N[C@H]4C[C@@H]4c4ccccc4)[C@H](C(=O)N[C@@H]4C[C@H]4c4ccccc4)C3)cc2)C[C@H]1C(=O)N[C@H]1C[C@@H]1c1ccccc1`: the EC50 was determined as 0.36 µM in assay [1] and 0.017 µM at Toll-like receptor 1/2.

With `O=C(N[C@H]1C[C@@H]1c1ccccc1)[C@@H]1CN(C(=O)[C@H]2CC[C@H](C(=O)N3C[C@@H](C(=O)N[C@H]4C[C@@H]4c4ccccc4)[C@H](C(=O)N[C@H]4C[C@@H]4c4ccccc4)C3)CC2)C[C@H]1C(=O)N[C@H]1C[C@@H]1c1ccccc1`, the 50% effective concentration (EC50) (in assay [1]; at Toll-like receptor 1/2) was > 5 µM throughout.

Take `O=C(N[C@H]1C[C@@H]1c1ccccc1)[C@@H]1CN(C(=O)c2cccc3c(C(=O)N4C[C@@H](C(=O)N[C@H]5C[C@@H]5c5ccccc5)[C@H](C(=O)N[C@H]5C[C@@H]5c5ccccc5)C4)cccc23)C[C@H]1C(=O)N[C@H]1C[C@@H]1c1ccccc1`: the EC50 (in assay [1]; on Toll-like receptor 1/2) was > 5 µM throughout.

As to `O=C(NCCc1ccccc1F)[C@@H]1CN(C(=O)c2ccc(C(=O)N3C[C@@H](C(=O)NCCc4ccccc4F)[C@H](C(=O)NCCc4ccccc4F)C3)cc2)C[C@H]1C(=O)NCCc1ccccc1F` (racemic), the EC50 at Toll-like receptor 1/2 is > 5 µM.

With `COc1ccc(CCNC(=O)[C@@H]2CN(C(=O)c3ccc(C(=O)N4C[C@@H](C(=O)NCCc5ccc(OC)cc5)[C@H](C(=O)NCCc5ccc(OC)cc5)C4)cc3)C[C@H]2C(=O)NCCc2ccc(OC)cc2)cc1` (racemic), the EC50 on Toll-like receptor 1/2 was > 5 µM.

For `O=C(NCCc1ccc(F)cc1)[C@@H]1CN(C(=O)c2cccc(C(=O)N3C[C@@H](C(=O)NCCc4ccc(F)cc4)[C@H](C(=O)NCCc4ccc(F)cc4)C3)c2)C[C@H]1C(=O)NCCc1ccc(F)cc1`, the EC50 (in assay [1]; on Toll-like receptor 1/2) was > 5 µM each time.

Consider `COC(=O)[C@@H]1CN(C(=O)c2ccc(C(=O)N3C[C@@H](C(=O)N[C@@H]4C[C@H]4c4ccccc4)[C@H](C(=O)OC)C3)cc2)C[C@H]1C(=O)N[C@@H]1C[C@H]1c1ccccc1`, for which the 50% effective concentration (EC50) (in assay [1]; on Toll-like receptor 1/2) was > 5 µM throughout.

`O=C(NCCc1ccc(F)cc1)[C@@H]1CN(C(=O)C#CC(=O)N2C[C@@H](C(=O)NCCc3ccc(F)cc3)[C@H](C(=O)NCCc3ccc(F)cc3)C2)C[C@H]1C(=O)NCCc1ccc(F)cc1`: the EC50 (in assay [1]; on Toll-like receptor 1/2) was > 5 µM each time.

In the case of `C#CCNc1cc(C(=O)N2C[C@@H](C(=O)N[C@H]3C[C@@H]3c3ccccc3)[C@H](C(=O)N[C@H]3C[C@@H]3c3ccccc3)C2)ccc1C(=O)N1C[C@@H](C(=O)N[C@H]2C[C@@H]2c2ccccc2)[C@H](C(=O)N[C@H]2C[C@@H]2c2ccccc2)C1`, the EC50 in assay [1] amounted to 0.75 µM; at Toll-like receptor 1/2 it was 0.015 µM.

Consider `COC(=O)c1ccc(CCNC(=O)[C@@H]2CN(C(=O)c3ccc(C(=O)N4C[C@@H](C(=O)NCCc5ccc(C(=O)OC)cc5)[C@H](C(=O)NCCc5ccc(C(=O)OC)cc5)C4)cc3)C[C@H]2C(=O)NCCc2ccc(C(=O)OC)cc2)cc1` (racemic), for which the EC50 on Toll-like receptor 1/2 is > 5 µM.

As to `O=C(N[C@H]1C[C@@H]1c1ccccc1)[C@@H]1CN(C(=O)c2ccc3cc(C(=O)N4C[C@@H](C(=O)N[C@H]5C[C@@H]5c5ccccc5)[C@H](C(=O)N[C@H]5C[C@@H]5c5ccccc5)C4)ccc3c2)C[C@H]1C(=O)N[C@H]1C[C@@H]1c1ccccc1`, the EC50 in assay [1] worked out at 0.38 µM; on Toll-like receptor 1/2 it was 0.002 µM.

For the compound `CCCCCCCCNC(=O)[C@@H]1CN(C(=O)c2ccc(C(=O)N3C[C@@H](C(=O)NCCCCCCCC)[C@H](C(=O)NCCCCCCCC)C3)cc2)C[C@H]1C(=O)NCCCCCCCC`, the EC50 in assay [1] was > 0.005 µM.

As for `O=C(N[C@H]1C[C@@H]1c1ccccc1)[C@@H]1CN(C(=O)/C=C/C=C/C(=O)N2C[C@@H](C(=O)N[C@H]3C[C@@H]3c3ccccc3)[C@H](C(=O)N[C@H]3C[C@@H]3c3ccccc3)C2)C[C@H]1C(=O)N[C@H]1C[C@@H]1c1ccccc1`, the values for the EC50 (in assay [1]; at Toll-like receptor 1/2) were 0.13 µM and 0.0002 µM, respectively.

Turning to `Cc1ccc([C@H]2C[C@@H]2NC(=O)[C@@H]2CN(C(=O)c3ccc(C(=O)N4C[C@@H](C(=O)N[C@H]5C[C@@H]5c5ccc(C)cc5)[C@H](C(=O)N[C@@H]5C[C@H]5c5ccc(C)cc5)C4)cc3)C[C@H]2C(=O)N[C@H]2C[C@@H]2c2ccc(C)cc2)cc1`, the EC50 in assay [1] is > 5 µM; on Toll-like receptor 1/2, 0.36 µM.

As to `N#Cc1ccc([C@H]2C[C@@H]2NC(=O)[C@@H]2CN(C(=O)c3ccc(C(=O)N4C[C@@H](C(=O)N[C@H]5C[C@@H]5c5ccc(C#N)cc5)[C@H](C(=O)N[C@@H]5C[C@H]5c5ccc(C#N)cc5)C4)cc3)C[C@H]2C(=O)N[C@H]2C[C@@H]2c2ccc(C#N)cc2)cc1`, the EC50 (in assay [1]; at Toll-like receptor 1/2) was > 5 µM each time.

For the compound `Nc1ccc(CCNC(=O)[C@@H]2CN(C(=O)c3ccc(C(=O)N4C[C@@H](C(=O)NCCc5ccc(N)cc5)[C@H](C(=O)NCCc5ccc(N)cc5)C4)cc3)C[C@H]2C(=O)NCCc2ccc(N)cc2)cc1` (racemic), on Toll-like receptor 1/2, the EC50 is > 5 µM.

For `O=C(NCCc1ccccc1)[C@@H]1CN(C(=O)c2ccc(C(=O)N3C[C@@H](C(=O)NCCc4ccc5ccccc5c4)[C@H](C(=O)NCCc4ccc5ccccc5c4)C3)cc2)C[C@H]1C(=O)NCCc1ccc2ccccc2c1` (racemic), the EC50 at Toll-like receptor 1/2 is > 5 µM.

Take `CCCCCCCCCCNC(=O)[C@@H]1CN(C(=O)c2ccc(C(=O)N3C[C@@H](C(=O)NCCCCCCCCCC)[C@H](C(=O)NCCCCCCCCCC)C3)cc2)C[C@H]1C(=O)NCCCCCCCCCC`: the EC50 in assay [1] is > 0.005 µM.

Take `O=C(N[C@H]1C[C@@H]1c1ccccc1)[C@@H]1CN(C(=O)c2cc(Br)c(C(=O)N3C[C@@H](C(=O)N[C@H]4C[C@@H]4c4ccccc4)[C@H](C(=O)N[C@H]4C[C@@H]4c4ccccc4)C3)cc2Br)C[C@H]1C(=O)N[C@H]1C[C@@H]1c1ccccc1`: the EC50 in assay [1] was > 5 µM; on Toll-like receptor 1/2, 0.86 µM.

On to `O=C(NCCc1ccc(F)cc1)[C@@H]1CN(C(=O)c2ccc(C(=O)N3C[C@@H](C(=O)NCCc4ccc(F)cc4)[C@H](C(=O)NCCc4ccc(F)cc4)C3)cc2)C[C@H]1C(=O)NCCc1ccc(F)cc1`, for which the EC50 in assay [1] was > 5 µM; on Toll-like receptor 1/2, 0.05 µM.

For `O=C(N[C@H]1C[C@@H]1c1ccccc1)[C@@H]1CN(C(=O)C/C=C/CC(=O)N2C[C@@H](C(=O)N[C@H]3C[C@@H]3c3ccccc3)[C@H](C(=O)N[C@H]3C[C@@H]3c3ccccc3)C2)C[C@H]1C(=O)N[C@H]1C[C@@H]1c1ccccc1`, the EC50 (in assay [1]; at Toll-like receptor 1/2) was > 5 µM throughout.

With `CCCCNC(=O)[C@@H]1CN(C(=O)c2ccc(C(=O)N3C[C@@H](C(=O)N[C@H]4C[C@@H]4c4ccccc4)[C@H](C(=O)N[C@@H]4C[C@H]4c4ccccc4)C3)cc2)C[C@H]1C(=O)N[C@H]1C[C@@H]1c1ccccc1`, the EC50 was determined as 0.03 µM in assay [1] and 0.002 µM on Toll-like receptor 1/2.

Turning to `O=C(NCCc1ccc(F)cc1)[C@@H]1CN(C(=O)c2ccc3cc(C(=O)N4C[C@@H](C(=O)NCCc5ccc(F)cc5)[C@H](C(=O)NCCc5ccc(F)cc5)C4)ccc3c2)C[C@H]1C(=O)NCCc1ccc(F)cc1`, the EC50 (in assay [1]; at Toll-like receptor 1/2) was > 5 µM throughout.

As for `CCCCCCNC(=O)[C@@H]1CN(C(=O)c2ccc(C(=O)N3C[C@@H](C(=O)NCCCCCC)[C@H](C(=O)NCCCCCC)C3)cc2)C[C@H]1C(=O)NCCCCCC`, the EC50 in assay [1] was > 0.005 µM.

For `O=C(NCCc1ccc([N+](=O)[O-])cc1)[C@@H]1CN(C(=O)c2ccc(C(=O)N3C[C@@H](C(=O)NCCc4ccc([N+](=O)[O-])cc4)[C@H](C(=O)NCCc4ccc([N+](=O)[O-])cc4)C3)cc2)C[C@H]1C(=O)NCCc1ccc([N+](=O)[O-])cc1` (racemic), at Toll-like receptor 1/2, the 50% effective concentration (EC50) was > 5 µM.

Regarding `O=C(NCCc1ccc(O)cc1)[C@@H]1CN(C(=O)c2ccc(C(=O)N3C[C@@H](C(=O)NCCc4ccc(O)cc4)[C@H](C(=O)NCCc4ccc(O)cc4)C3)cc2)C[C@H]1C(=O)NCCc1ccc(O)cc1` (racemic), the EC50 at Toll-like receptor 1/2 was > 5 µM.

As to `O=C(NCCc1ccc(Cl)cc1)[C@@H]1CN(C(=O)c2ccc(C(=O)N3C[C@@H](C(=O)NCCc4ccc(Cl)cc4)[C@H](C(=O)NCCc4ccc(Cl)cc4)C3)cc2)C[C@H]1C(=O)NCCc1ccc(Cl)cc1` (racemic), on Toll-like receptor 1/2, the concentration for a half-maximal effect (EC50) was > 5 µM.

For the compound `O=C(NCCc1ccc(Br)cc1)[C@@H]1CN(C(=O)c2ccc(C(=O)N3C[C@@H](C(=O)NCCc4ccc(Br)cc4)[C@H](C(=O)NCCc4ccc(Br)cc4)C3)cc2)C[C@H]1C(=O)NCCc1ccc(Br)cc1` (racemic), on Toll-like receptor 1/2, the EC50 was > 5 µM.

Regarding `O=C(NCCc1ccc(C(F)(F)F)cc1)[C@@H]1CN(C(=O)c2ccc(C(=O)N3C[C@@H](C(=O)NCCc4ccc(C(F)(F)F)cc4)[C@H](C(=O)NCCc4ccc(C(F)(F)F)cc4)C3)cc2)C[C@H]1C(=O)NCCc1ccc(C(F)(F)F)cc1` (racemic), the EC50 on Toll-like receptor 1/2 was > 5 µM.

On to `N#Cc1ccc(CCNC(=O)[C@@H]2CN(C(=O)c3ccc(C(=O)N4C[C@@H](C(=O)NCCc5ccc(C#N)cc5)[C@H](C(=O)NCCc5ccc(C#N)cc5)C4)cc3)C[C@H]2C(=O)NCCc2ccc(C#N)cc2)cc1` (racemic), for which the EC50 on Toll-like receptor 1/2 is > 5 µM.

In the case of `Cc1ccc(CCNC(=O)[C@@H]2CN(C(=O)c3ccc(C(=O)N4C[C@@H](C(=O)NCCc5ccc(C)cc5)[C@H](C(=O)NCCc5ccc(C)cc5)C4)cc3)C[C@H]2C(=O)NCCc2ccc(C)cc2)cc1` (racemic), the EC50 on Toll-like receptor 1/2 is > 5 µM.

In the case of `CCCCCCCCCCCCCCCCNC(=O)[C@@H]1CN(C(=O)c2ccc(C(=O)N3C[C@@H](C(=O)NCCCCCCCCCCCCCCCC)[C@H](C(=O)NCCCCCCCCCCCCCCCC)C3)cc2)C[C@H]1C(=O)NCCCCCCCCCCCCCCCC`, the concentration for a half-maximal effect (EC50) in assay [1] was > 0.005 µM.

For `O=C(NCCc1ccc(-c2ccccc2)cc1)[C@@H]1CN(C(=O)c2ccc(C(=O)N3C[C@@H](C(=O)NCCc4ccc(-c5ccccc5)cc4)[C@H](C(=O)NCCc4ccc(-c5ccccc5)cc4)C3)cc2)C[C@H]1C(=O)NCCc1ccc(-c2ccccc2)cc1` (racemic), the EC50 on Toll-like receptor 1/2 was > 5 µM.

For the origin of these results see ChEMBL document CHEMBL5226282, “TLR2 Agonistic Small Molecules: Detailed Structure-Activity Relationship, Applications, and Future Prospects” (J Med Chem, 2021).
